Measured values taken from article PMC9709406 (Frontiers in Pharmacology, 2022).
Read-outs that look alike come from different tables or passages of the source.

What was measured:
[1] = tested on: KYSE450 cell-derived xenograft; assay: In vivo cell-derived xenograft (CDX) mouse model; set-up: species or system nu/nu nude mice
Method: Mice were housed under specific pathogen-free conditions. All animal experiments were approved by the Bioethics Committee of Zhengzhou University and followed the guidelines set by the Institutional Animal Care and Use Committee (CUHCI2019002, CUHCI2021001, and CUHCI2021005). To generate the cell-derived xenograft (CDX) mouse model, nu/nu nude mice (Vital River Labs., Beijing, China) were subcutaneously injected with 5 × 10^6 cells (KYSE450). […] Tumor volume was calculated as follows: length × width × height × 0.5. Tumor size and mice weight were measured every 2–3 days. Compounds were administered for 15 days. The tumors were extracted for weighting, immunohistochemistry and immunofluorescence studies.
Frozen sections were washed three times with PBS and incubated overnight at 4°C with Ki-67 antibody. The next day, sections were washed three times and incubated with secondary antibody in PBS. After several washes, slides were counterstained with DAPI (Solarbio). The sections were mounted on microscope and imaged using fluorescent microscopy (Nikon, Tokyo, Japan). Image-Pro Plus 6.0 was used to analyze the fluorescence intensity.
Histological sections were dewaxed, antigens were repaired and sealed with serum in sequence. Next, histological sections were incubated overnight with diluted primary antibodies (1 : 500 dilution), and the control specimens were treated with PBS. The sections were washed 3 times with PBS. Secondary antibody was added and the system was then placed at 37 °C for half an hour. The systems were washed 3 times with PBS. Color developing agent was added. After washing with water, the system was soaked in hematoxylin for 0.5 min for dyeing. The re-dyed slides were washed with water, and then dehydrated. Neutral gums were dropped on the side of the tissue. The slices were then covered with cover glass, sealed and placed in a ventilator for drying. Immunohistochemical staining analysis was then carried out with Image-Pro Plus 6.0.

H1975OR cells = assay: MTT assay, osimertinib-resistant H1975OR; format: cell-based; settings: Homo sapiens
Description: (§1) The human cancer cells (H1650, H1975, KYSE70, KYSE410 and KYSE450) were purchased from the Type Culture Collection of the Chinese Academy of Sciences (Shanghai, China). The human immortalized normal esophageal epithelial cell line SHEE was donated by Dr. Enmin Li from the Laboratory of Tumor Pathology (Shantou University Medical College, Shantou, Guangdong, China). Drug-resistant cells (H1650TR, H1975OR, KYSE70TR, KYSE410TR and KYSE450TR) were induced by China-US (Henan) Hormel Cancer Institute. The cellswere cultured in RPMI-1640 complete growth medium containing 100 U/mL penicillin-streptomycin and 10% FBS. Based on the above medium formula, 100 nm/L paclitaxel was added in taxol-resistant cells, 100 nm/L gefitinib was added in gefitinib-resistant cells. The cells were incubated at 37 °C in an atmosphere containing 5% of CO2. The compounds were dissolved in DMSO to make a 50 mM stock solution and were diluted to the concentration of working solutions with complete growth medium before administration.
(§2) Cells were seeded in 96-well plates with 2,200–2,500 cells/well in100 μL. One day after seeding, test compounds with the concentration between 0 and 50 μM were added with 0.1% DMSO as control. Five multiple wells for each concentration. […] The absorbance at 490 nm was measured using a microplate reader (Thermo).

H1975 cells = assay: MTT assay for cell proliferation and cytotoxicity, H1975; format: cell-based, human
How it was run: (§3)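 Cells seeded at 2,200–2,500/well in RPMI-1640 with 10% FBS; taxol-resistant lines maintained in 100 nm/L paclitaxel. Compounds at 0–50 μM added next day (0.1% DMSO control), five replicate wells, 48 h exposure. Viability by MTT, absorbance 490 nm.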

KYSE410TR cells = assay: MTT assay, taxol-resistant KYSE410TR; format: cell-based, human; settings: Homo sapiens; MTT, 48 h, taxol-resistant KYSE410TR, value in parentheses; read-out: IC50 48 h KYSE410TR (data in parentheses) (converted)
Description: as §1, §2

KYSE450TR cells [2] = assay: MTT assay, taxol-resistant KYSE450TR; format: cell-based, human; settings: Homo sapiens; MTT, 48 h, taxol-resistant KYSE450TR, value in parentheses; read-out: IC50 48 h KYSE450TR (data in parentheses) (converted)
Description: as §1, §2

KYSE70TR cells = assay: MTT assay, taxol-resistant KYSE70TR; format: cell-based, human; settings: Homo sapiens; MTT, 48 h, taxol-resistant KYSE70TR, value in parentheses; read-out: IC50 48 h KYSE70TR (data in parentheses) (converted)
Description: as §1, §2

SHEE cells = assay: MTT assay, normal esophageal epithelial cell line SHEE; format: cell-based; settings: Homo sapiens, 48 h, n = 5
How it was run: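 Growth inhibition is measured by MTT reduction (A490) following 48 h treatment across 0–50 μM compound, with 0.1% DMSO as control. Taxol-resistant sublines are cultured in medium carrying 100 nm/L paclitaxel.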

[3] = biological target: T1, EGFR wild protein (H672-A1210) (Homo sapiens, UniProt P00533); assay: EGFR protein affinity determined with SPR; format: binding; settings: immobilized wild-type EGFR
T1 construct: purchased Active MOTIF 31165
T1 sequence (P00533 672-1210): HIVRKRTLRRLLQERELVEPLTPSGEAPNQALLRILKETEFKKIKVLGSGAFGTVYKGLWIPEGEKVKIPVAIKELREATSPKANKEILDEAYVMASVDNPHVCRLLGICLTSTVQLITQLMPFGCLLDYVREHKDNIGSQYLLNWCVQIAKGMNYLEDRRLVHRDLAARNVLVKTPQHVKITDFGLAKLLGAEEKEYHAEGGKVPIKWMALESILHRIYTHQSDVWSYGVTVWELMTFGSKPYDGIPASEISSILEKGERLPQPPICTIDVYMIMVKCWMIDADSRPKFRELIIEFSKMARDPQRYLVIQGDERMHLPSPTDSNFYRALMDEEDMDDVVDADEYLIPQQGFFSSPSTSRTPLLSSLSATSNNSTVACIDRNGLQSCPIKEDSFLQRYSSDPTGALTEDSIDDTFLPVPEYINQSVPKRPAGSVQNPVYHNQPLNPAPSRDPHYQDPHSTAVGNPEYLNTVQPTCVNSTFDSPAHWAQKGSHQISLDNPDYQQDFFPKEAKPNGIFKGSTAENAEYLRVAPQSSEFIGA
Method: Firstly, EGFR protein (protein concentration : 0.468 μg/μL, Active MOTIF, cat: 31165, lot: 28215004) was covalently immobilized onto a CM5 sensor chip at densities of 2000 response units. […] During the drug-protein interaction, the change of the refractive index was measured in real-time which would allow the plotting of the results of interaction as response units versus time. The interaction results were analyzed under a BIA evaluation 3.0 software.

KYSE70 cells = assay: MTT assay, KYSE70; format: cell-based, human; settings: Homo sapiens, KYSE-70; MTT, 48 h, KYSE70, n = 5
How it was run: as §3

H1650TR cells = assay: MTT assay, taxol-resistant H1650TR; format: cell-based; settings: Homo sapiens, NCI-H1650, 48 h, value in parentheses in H1650 column
Description: as §1
Cells were seeded in 96-well plates with 2,200–2,500 cells/well in100 μL. One day after seeding, test compounds with the concentration between 0 and 50 μM were added with 0.1% DMSO as control. Five multiple wells for each concentration. After 48 h, MTT was added and incubated in the plate for 1–4 h in the incubator. The absorbance at 490 nm was measured using a microplate reader (Thermo).

H1650 cells = assay: MTT assay for cell proliferation and cytotoxicity, H1650; format: cell-based; settings: Homo sapiens, NCI-H1650, 48 h, H1650, n = 5
How it was run: as §3

KYSE450 cells [4] = assay: Annexin V/PI flow cytometry for apoptosis, KYSE450; format: cell-based, human; settings: 48 h
Method: (§4) Cell-apoptosis analysis was carried out by flow cytometry using the Annexin V/PI apoptosis methods. […] Cells were harvested and incubated with 250 μL of 1 × Annexin V binding buffer containing 5 μL PI and 5 μL FITC Annexin V (final concentration 1.8 μg/ml, Biolegend (cat: 640945) for 15 min at room temperature in dark. 200 µL of 1 × binding buffer was added for flow cytometry analysis (BD FACSCalibur™ Flow Cytometer).

KYSE450 cells [5] = assay: Cell cycle analysis by flow cytometry, KYSE450; format: cell-based, human; settings: KYSE450, 24 h; icotinib at 2 μM, 3l at 8 μM
Method: (§5) KYSE450/KYSE450TR cells were plated in 6-well plates with a density of 1×10^5 cells/well and cultured overnight. […] Trypsinization treatment and the cells were collected by centrifugation. The cell pellet was re-suspended in 70% ethanol at −20°C for at least 3 h. The cells were washed with PBS and were re-suspended in 250 μL of 0.6% tricine with Renease A for 1 h, then stained in PI (final concentration 1.8 μg/ml, Biolegend cat: 640945) for 15 min in dark. Cells were retransferred to the BD FACSCalibur™ Flow Cytometer. All analyses were performed with FlowJo software v105.3.6.

KYSE410 cells = assay: MTT assay, KYSE410; format: cell-based, human; settings: Homo sapiens, KYSE-410; MTT, 48 h, KYSE410, n = 5; read-out: IC50 48 h KYSE410
How it was run: as §3

KYSE450 cells [6] = assay: MTT assay, KYSE450; format: cell-based, human; settings: Homo sapiens, KYSE-450; MTT, 48 h, KYSE450, n = 5; read-out: IC50 48 h KYSE450
How it was run: as §3

EGFR = biological target: T2, EGFR (Homo sapiens, UniProt P00533); assay: EGFR kinase assay (ELISA); format: biochemical; settings: 25°C
T2 construct: purchased Active MOTIF
T2 sequence (P00533 25-1210): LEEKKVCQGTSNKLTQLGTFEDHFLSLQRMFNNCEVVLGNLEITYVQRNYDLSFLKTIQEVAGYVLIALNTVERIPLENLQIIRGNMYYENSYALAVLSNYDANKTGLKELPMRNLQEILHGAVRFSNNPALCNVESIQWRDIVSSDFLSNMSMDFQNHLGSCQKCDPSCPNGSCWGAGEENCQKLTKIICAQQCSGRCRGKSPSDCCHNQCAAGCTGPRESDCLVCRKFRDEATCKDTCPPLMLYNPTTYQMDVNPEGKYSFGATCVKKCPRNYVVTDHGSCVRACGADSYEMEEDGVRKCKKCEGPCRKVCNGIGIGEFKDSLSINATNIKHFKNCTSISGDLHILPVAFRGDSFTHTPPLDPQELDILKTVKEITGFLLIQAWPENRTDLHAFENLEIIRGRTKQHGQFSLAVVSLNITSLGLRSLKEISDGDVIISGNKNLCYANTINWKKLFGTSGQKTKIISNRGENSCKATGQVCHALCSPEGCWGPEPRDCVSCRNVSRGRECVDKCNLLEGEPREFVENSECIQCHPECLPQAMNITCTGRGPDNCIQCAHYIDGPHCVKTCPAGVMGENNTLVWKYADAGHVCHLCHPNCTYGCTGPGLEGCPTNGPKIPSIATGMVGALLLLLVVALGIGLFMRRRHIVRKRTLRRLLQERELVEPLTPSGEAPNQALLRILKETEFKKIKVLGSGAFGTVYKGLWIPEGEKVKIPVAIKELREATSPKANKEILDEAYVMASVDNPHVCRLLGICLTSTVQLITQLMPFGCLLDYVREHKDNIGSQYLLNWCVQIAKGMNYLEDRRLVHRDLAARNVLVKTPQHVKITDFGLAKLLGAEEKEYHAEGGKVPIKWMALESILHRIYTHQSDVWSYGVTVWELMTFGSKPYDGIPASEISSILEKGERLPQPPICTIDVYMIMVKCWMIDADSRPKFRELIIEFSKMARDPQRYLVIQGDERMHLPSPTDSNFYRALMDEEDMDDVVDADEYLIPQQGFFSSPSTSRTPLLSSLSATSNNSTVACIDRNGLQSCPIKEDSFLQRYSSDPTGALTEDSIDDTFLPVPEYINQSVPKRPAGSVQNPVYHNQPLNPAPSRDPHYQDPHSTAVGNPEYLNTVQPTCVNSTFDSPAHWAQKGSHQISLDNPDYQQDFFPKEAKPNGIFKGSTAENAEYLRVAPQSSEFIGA
Method: Kinase inhibitory activities of the compounds were evaluated using the Protein Tyrosine Kinase Assay Kit (SignalChem (British Columbia, Canada)). The kinase enzyme of EGFR was purchased from Active MOTIF. The ELISA experiments were carried out according the instructions of the kit. Active kinases were incubated with indicated compounds in 1 × reaction buffer containing 20 μM substrate at 25°C for 1 h and 2 h, respectively. The absorbance was read with a multimode plate reader (PerkinElmer, United States) at 450 nm.

KYSE450TR cells [7] = assay: Annexin V/PI flow cytometry for apoptosis, KYSE450TR; format: cell-based, human; settings: 48 h
Method: as §4

KYSE450TR cells [8] = assay: Cell cycle analysis by flow cytometry, KYSE450TR; format: cell-based, human; settings: 24 h, icotinib at 8 μM, 3l at 8 μM
Method: as §5

[9] = nude mice, 50 mg/kg i.p. every day, 15 days, vs control group and icotinib group

Question: What does the source list for `C#Cc1cccc(Nc2ncnc3cc(OCCOC)c(OCCOC)cc23)c1` [erlotinib, reference compound]?
Answer: expression of proliferation marker Ki-67 in tumor ([1]; 50 mg/kg i.p., immunofluorescence): decreased significantly; expression of P-ERK (Tyr202/204) in tumor ([1]; 50 mg/kg i.p., immunohistochemistry): decreased significantly; ESCC tumor volume [1, 9]: markedly reduced; average tumor weight [1, 9]: markedly reduced

Question: `C=CC(=O)Nc1cc(Nc2nccc(-c3cn(C)c4ccccc34)n2)c(OC)cc1N(C)CCN(C)C` [osimertinib, reference compound] was tested. Which IC50 (H1975OR cells; H1975OR, 24 h, resistance-inducing drug (osimertinib), read-out: 24 h IC50) did it give?
Answer: Its IC50 is 13.8 ± 2.98 µM.

Question: And the IC50 (H1975OR cells; H1975OR, 48 h, resistance-inducing drug (osimertinib), read-out: 48 h IC50)?
Answer: Its IC50 is 5.97 ± 0.289 µM.

Question: And the IC50 (H1975 cells; Homo sapiens, NCI-H1975, 24 h, H1975, MTT, 24 h, resistance-inducing drug (osimertinib), read-out: 24 h IC50)?
Answer: The IC50 was 0.585 ± 0.0261 µM.

Question: What about the IC50 (H1975 cells; Homo sapiens, NCI-H1975, 48 h, H1975, MTT, 48 h, resistance-inducing drug (osimertinib), read-out: 48 h IC50) of the same compound?
Answer: The IC50 was 0.102 ± 0.0121 µM.

Question: Which IC50 (KYSE410TR cells) does the source give for `C#Cc1cccc(Nc2ncnc3cc4c(cc23)OCCOCCOCCO4)c1` [icotinib, reference compound] here?
Answer: The IC50 was over 50 µM.

Question: And the IC50 (KYSE450TR cells [2])?
Answer: The IC50 was over 50 µM.

Question: What about the IC50 (KYSE70TR cells) of the same compound?
Answer: The IC50 was over 50 µM.

Question: What about the IC50 (SHEE cells) of the same compound?
Answer: The IC50 was 19.2 ± 1.29 µM.

Question: And the “Rmax(RU)” value [3]?
Answer: Its value is 15.74 RU.

Question: What about the Kd ([3]; 25°C) of the same compound?
Answer: The Kd was 36.1 µM.

Question: And the IC50 (H1975OR cells; NCI-H1975, 48 h, osimertinib-resistant H1975OR, value in parentheses in H1975 column, read-out: IC50 48 h H1975OR (data in parentheses) (converted))?
Answer: The IC50 was over 50 µM.

Question: And the IC50 (KYSE70 cells)?
Answer: Its IC50 is over 50 µM.

Question: And the IC50 (H1975 cells; Homo sapiens, NCI-H1975, 48 h, MTT, 48 h, H1975, n = 5, read-out: IC50 48 h H1975)?
Answer: The IC50 was over 50 µM.

Question: And the IC50 (H1975 cells; MTT, 48 h, H1975, n = 5, read-out: IC50 48 h H1975)?
Answer: The IC50 was 48.3 ± 2.13 µM.

Question: What about the IC50 (H1650TR cells) of the same compound?
Answer: The IC50 was over 50 µM.

Question: And the IC50 (H1650 cells)?
Answer: The IC50 was over 50 µM.

Question: What about the “proportion of apoptotic cells” value (KYSE450 cells [4]; KYSE450, 2 μM) of the same compound?
Answer: Its value is 7.84%.

Question: And the “proportion of apoptotic cells” value (KYSE450 cells [4]; KYSE450, 4 μM)?
Answer: The value was 12.25%.

Question: And the “cell cycle phase in which cells were arrested” value (KYSE450 cells [5])?
Answer: The value was “G1 phase”.

Question: And the IC50 (KYSE410 cells)?
Answer: Its IC50 is over 50 µM.

Question: And the IC50 (KYSE450 cells [6])?
Answer: Its IC50 is 30.4 ± 1.96 µM.

Question: What about the IC50 (EGFR; incubation 1 h, read-out: IC50 EGFR 1 h) of the same compound?
Answer: Its IC50 is 0.00138 µM.

Question: And the IC50 (EGFR; incubation 2 h, read-out: IC50 EGFR 2 h)?
Answer: Its IC50 is 0.038 µM.

Question: And the “proportion of apoptotic cells” value (KYSE450TR cells [7]; 5 μM)?
Answer: The value was 8.51%.

Question: What about the “proportion of apoptotic cells” value (KYSE450TR cells [7]; 10 μM) of the same compound?
Answer: Its value is 10.43%.

Question: What about the “cell cycle phase in which cells were arrested” value (KYSE450TR cells [8]) of the same compound?
Answer: The value was “G1 phase”.
